Measurements reported in PubChem BioAssay AID248 (DTP/NCI, 2004).
Where “and” joins values, the source holds several entries; their conditions need not be identical. Identical values can stand only once. Toxic doses and inconclusive results are not listed. Cut-off read from the data, not from the text of the source: active = T/C of 150% or more; inactive = T/C below 125%.

System: L1210 leukemia ip in BDF1 mice, survival T/C
Test: NCI In Vivo Anticancer Drug Screen. Data for tumor model L1210 Leukemia (intraperitoneal) in B6D2F1 (BDF1) mice
Conditions: endpoint: mean survival time, higher = longer survival
Outline: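 In this screen, tumor-bearing mice given compound are compared to those given vehicle, and their survival values are reported as a treated-to-control quotient.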

[1] = dose: 100.0 mg/kg/injection, schedule: Q04DX003 (ip), vehicle: saline
[2] = dose: 200.0 mg/kg/injection, schedule: Q04DX003 (ip), vehicle: saline
[3] = dose: 400.0 mg/kg/injection, schedule: Q04DX003 (ip), vehicle: saline
[4] = dose: 100.0 mg/kg/injection, schedule: Q04DX003 (ip), vehicle: saline with Tween-80
[5] = dose: 200.0 mg/kg/injection, schedule: Q04DX003 (ip), vehicle: saline with Tween-80
[6] = dose: 25.0 mg/kg/injection, schedule: Q04DX003 (ip), vehicle: saline
[7] = dose: 50.0 mg/kg/injection, schedule: Q04DX003 (ip), vehicle: saline
[8] = dose: 100.0 mg/kg/injection, schedule: Q04DX003 (ip), vehicle: Klucel (hydroxypropylcellulose) (HPC)
[9] = dose: 200.0 mg/kg/injection, schedule: Q04DX003 (ip), vehicle: Klucel (hydroxypropylcellulose) (HPC)
[10] = dose: 400.0 mg/kg/injection, schedule: Q04DX003 (ip), vehicle: Klucel (hydroxypropylcellulose) (HPC)
[11] = dose: 100.0 mg/kg/injection, schedule: Q01DX009 (ip), vehicle: saline with Tween-80
[12] = dose: 200.0 mg/kg/injection, schedule: Q01DX009 (ip), vehicle: saline with Tween-80
[13] = dose: 400.0 mg/kg/injection, schedule: Q01DX009 (ip), vehicle: saline with Tween-80
[14] = dose: 100.0 mg/kg/injection, schedule: Q01DX009 (ip), vehicle: Klucel (hydroxypropylcellulose) (HPC)
[15] = dose: 200.0 mg/kg/injection, schedule: Q01DX009 (ip), vehicle: Klucel (hydroxypropylcellulose) (HPC)
[16] = dose: 400.0 mg/kg/injection, schedule: Q01DX009 (ip), vehicle: Klucel (hydroxypropylcellulose) (HPC)

Measured: T/C

Cn1cc(C(N)=O)ccc1=N
inactive: [1] 113 % of control | [2] 98 % of control | [3] 106 % of control

Oc1cc2c(O)cccc2c2ccccc12
inactive: [4] 92 % of control | [5] 90 % of control

O=C1c2ccccc2C(=O)N1CNc1ccccn1
inactive: dose: 100.0 mg/kg/injection, schedule: Q04DX002 (ip), vehicle: saline with Tween-80 96 % of control | dose: 200.0 mg/kg/injection, schedule: Q04DX002 (ip), vehicle: saline with Tween-80 93 % of control | dose: 400.0 mg/kg/injection, schedule: Q04DX002 (ip), vehicle: saline with Tween-80 100 % of control

CCC(CC)(CO)CO
inactive: dose: 25.0 mg/kg/injection, schedule: Q01DX009 (ip), vehicle: saline 96 % of control | [6] 96 % of control | dose: 50.0 mg/kg/injection, schedule: Q01DX009 (ip), vehicle: saline 96 % of control | [7] 102 % of control | dose: 100.0 mg/kg/injection, schedule: Q01DX009 (ip), vehicle: saline 92 % of control | [8] 103 % of control | [1] 91 % of control | dose: 200.0 mg/kg/injection, schedule: Q01DX009 (ip), vehicle: saline 96 % of control | [9] 94 % of control | [2] 91 % of control | dose: 400.0 mg/kg/injection, schedule: Q01DX009 (ip), vehicle: saline 96 % of control | [10] 97 % of control | [3] 107 % of control

O=[N+]([O-])c1ccccc1N=Nc1c(O)[nH]c2ccccc12
inactive: dose: 100.0 mg/kg/injection, schedule: Q01DX001 (ip), vehicle: other 102 % of control | dose: 200.0 mg/kg/injection, schedule: Q01DX001 (ip), vehicle: other 98 % of control | dose: 400.0 mg/kg/injection, schedule: Q01DX001 (ip), vehicle: other 102 % of control

CN=C(N)N(C)NCc1ccccc1
inactive: [6] 100 % of control | [7] 109 % of control | dose: 100.0 mg/kg/injection, schedule: Q01DX001 (ip), vehicle: saline 97 % of control | [1] 105 % of control

O=C1c2ccccc2C(=O)N1CCC[P+](c1ccccc1)(c1ccccc1)c1ccccc1
inactive: dose: 6.25 mg/kg/injection, schedule: Q01DX009 (ip), vehicle: saline with Tween-80 106 % of control | dose: 12.5 mg/kg/injection, schedule: Q01DX009 (ip), vehicle: saline with Tween-80 111 % of control | dose: 25.0 mg/kg/injection, schedule: Q01DX009 (ip), vehicle: saline with Tween-80 116 % of control and 120 % of control

C(=C/n1cnc2ccccc21)/c1ccccc1
inactive: dose: 87.5 mg/kg/injection, schedule: Q04DX003 (ip), vehicle: Klucel (hydroxypropylcellulose) (HPC) 92 % of control | dose: 175.0 mg/kg/injection, schedule: Q04DX003 (ip), vehicle: Klucel (hydroxypropylcellulose) (HPC) 96 % of control | dose: 350.0 mg/kg/injection, schedule: Q04DX003 (ip), vehicle: Klucel (hydroxypropylcellulose) (HPC) 91 % of control

COc1ccc(C[C@H]2NC[C@H](O)[C@H]2OC(C)=O)cc1
inactive: dose: 25.0 mg/kg/injection, schedule: Q01DX Z (ip), vehicle: saline 109 % of control | dose: 50.0 mg/kg/injection, schedule: Q01DX Z (ip), vehicle: saline 102 % of control | dose: 100.0 mg/kg/injection, schedule: Q01DX Z (ip), vehicle: saline 109 % of control | dose: 200.0 mg/kg/injection, schedule: Q01DX Z (ip), vehicle: saline 92 % of control and 107 % of control

Cc1ccc(NC(=O)NC2CCCCC2)cc1
inactive: [11] 94 % of control | [12] 97 % of control | [13] 92 % of control

CN1CNC(=O)NC1
inactive: [14] 113 % of control | [8] 105 % of control | [15] 105 % of control | [9] 105 % of control | [16] 103 % of control | [10] 111 % of control

O=C1c2ccccc2C(=O)C(Cl)C1Cl (stereo not given)
inactive: dose: 1.56 mg/kg/injection, schedule: Q04DX003 (ip), vehicle: other 97 % of control | dose: 3.13 mg/kg/injection, schedule: Q04DX003 (ip), vehicle: other 92 % of control | dose: 6.25 mg/kg/injection, schedule: Q04DX003 (ip), vehicle: other 96 % of control and 100 % of control

OCCN(CCO)c1cc(OCc2ccccc2)cc(OCc2ccccc2)c1
inactive: dose: 25.0 mg/kg/injection, schedule: Q01DX009 (ip), vehicle: water 94 % of control | dose: 50.0 mg/kg/injection, schedule: Q01DX009 (ip), vehicle: water 97 % of control | dose: 100.0 mg/kg/injection, schedule: Q01DX009 (ip), vehicle: water 101 % of control | dose: 200.0 mg/kg/injection, schedule: Q01DX009 (ip), vehicle: water 86 % of control | dose: 400.0 mg/kg/injection, schedule: Q01DX009 (ip), vehicle: water 95 % of control

O=[N+]([O-])c1ccc(/C=N/N2CCCCC2)s1
inactive: [4] 97 % of control | [5] 92 % of control | dose: 400.0 mg/kg/injection, schedule: Q04DX003 (ip), vehicle: saline with Tween-80 89 % of control

CCCCN(Cc1ccccc1)C(=S)Nc1ccccc1
inactive: [14] 106 % of control | [15] 108 % of control | [16] 108 % of control

Cc1ccc(SC(=O)Cc2ccc([N+](=O)[O-])cc2)cc1
inactive: [11] 97 % of control | [12] 86 % of control | [13] 93 % of control

O=C1c2ccccc2C(=O)N1CCS(=O)(=O)Cl
inactive: dose: 25.0 mg/kg/injection, schedule: Q01DX001 (ip), vehicle: carboxymethylcellulose (CMC) 104 % of control | dose: 25.0 mg/kg/injection, schedule: Q01DX009 (ip), vehicle: carboxymethylcellulose (CMC) 92 % of control and 96 % of control | dose: 50.0 mg/kg/injection, schedule: Q01DX001 (ip), vehicle: carboxymethylcellulose (CMC) 100 % of control | dose: 50.0 mg/kg/injection, schedule: Q01DX009 (ip), vehicle: carboxymethylcellulose (CMC) 92 % of control and 102 % of control | dose: 50.0 mg/kg/injection, schedule: Q04DX003 (ip), vehicle: carboxymethylcellulose (CMC) 97 % of control and 98 % of control | dose: 100.0 mg/kg/injection, schedule: Q01DX001 (ip), vehicle: carboxymethylcellulose (CMC) 92 % of control and 99 % of control | dose: 100.0 mg/kg/injection, schedule: Q01DX009 (ip), vehicle: carboxymethylcellulose (CMC) 92 % of control and 95 % of control and 89 % of control | dose: 100.0 mg/kg/injection, schedule: Q04DX002 (ip), vehicle: carboxymethylcellulose (CMC) 93 % of control and 97 % of control | dose: 100.0 mg/kg/injection, schedule: Q04DX003 (ip), vehicle: carboxymethylcellulose (CMC) 100 % of control and 113 % of control | dose: 200.0 mg/kg/injection, schedule: Q01DX001 (ip), vehicle: carboxymethylcellulose (CMC) 97 % of control | dose: 200.0 mg/kg/injection, schedule: Q04DX002 (ip), vehicle: carboxymethylcellulose (CMC) 97 % of control | dose: 200.0 mg/kg/injection, schedule: Q04DX003 (ip), vehicle: carboxymethylcellulose (CMC) 100 % of control and 102 % of control | dose: 400.0 mg/kg/injection, schedule: Q01DX001 (ip), vehicle: carboxymethylcellulose (CMC) 92 % of control | dose: 400.0 mg/kg/injection, schedule: Q01DX009 (ip), vehicle: carboxymethylcellulose (CMC) 86 % of control | dose: 400.0 mg/kg/injection, schedule: Q04DX002 (ip), vehicle: carboxymethylcellulose (CMC) 97 % of control and 100 % of control

CC[C@H]1CN2CCc3cc(OC)c(OC)cc3[C@@H]2C[C@@H]1C[C@@H]1c2cc(OC)c(OC)cc2CCN1N=O
inactive: [1] 100 % of control
